Counter-ions that a name gives are not always drawn.
Experiments:
[1] = biological target: T1, JAK2 (Homo sapiens, UniProt O60674); experiment: JAK tyrosine kinase inhibitory activity in the presence of 1 mM ATP (ELISA), JAK2; type: biochemical
T1 construct: purchased Carna Biosciences, Inc
Summary of the method: (§1)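 Kinase reactions ran on streptavidin-coated plates in 15 mM Tris-HCl pH 7.5, 0.01% Tween-20, 1 mM DTT, 30 °C for 1 h. Enzyme was prediluted to 7.5 nM (JAK1) or 0.75 nM (JAK2, JAK3) before addition. Phosphotyrosine was detected with HRP anti-pTyr antibody and TMB at A450.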

[2] = biological target: T2, JAK3 (Homo sapiens, UniProt P52333); experiment: JAK tyrosine kinase inhibitory activity in the presence of 1 mM ATP (ELISA), JAK3; type: biochemical
T2 construct: purchased Carna Biosciences, Inc
T2 sequence (P52333 1-1124): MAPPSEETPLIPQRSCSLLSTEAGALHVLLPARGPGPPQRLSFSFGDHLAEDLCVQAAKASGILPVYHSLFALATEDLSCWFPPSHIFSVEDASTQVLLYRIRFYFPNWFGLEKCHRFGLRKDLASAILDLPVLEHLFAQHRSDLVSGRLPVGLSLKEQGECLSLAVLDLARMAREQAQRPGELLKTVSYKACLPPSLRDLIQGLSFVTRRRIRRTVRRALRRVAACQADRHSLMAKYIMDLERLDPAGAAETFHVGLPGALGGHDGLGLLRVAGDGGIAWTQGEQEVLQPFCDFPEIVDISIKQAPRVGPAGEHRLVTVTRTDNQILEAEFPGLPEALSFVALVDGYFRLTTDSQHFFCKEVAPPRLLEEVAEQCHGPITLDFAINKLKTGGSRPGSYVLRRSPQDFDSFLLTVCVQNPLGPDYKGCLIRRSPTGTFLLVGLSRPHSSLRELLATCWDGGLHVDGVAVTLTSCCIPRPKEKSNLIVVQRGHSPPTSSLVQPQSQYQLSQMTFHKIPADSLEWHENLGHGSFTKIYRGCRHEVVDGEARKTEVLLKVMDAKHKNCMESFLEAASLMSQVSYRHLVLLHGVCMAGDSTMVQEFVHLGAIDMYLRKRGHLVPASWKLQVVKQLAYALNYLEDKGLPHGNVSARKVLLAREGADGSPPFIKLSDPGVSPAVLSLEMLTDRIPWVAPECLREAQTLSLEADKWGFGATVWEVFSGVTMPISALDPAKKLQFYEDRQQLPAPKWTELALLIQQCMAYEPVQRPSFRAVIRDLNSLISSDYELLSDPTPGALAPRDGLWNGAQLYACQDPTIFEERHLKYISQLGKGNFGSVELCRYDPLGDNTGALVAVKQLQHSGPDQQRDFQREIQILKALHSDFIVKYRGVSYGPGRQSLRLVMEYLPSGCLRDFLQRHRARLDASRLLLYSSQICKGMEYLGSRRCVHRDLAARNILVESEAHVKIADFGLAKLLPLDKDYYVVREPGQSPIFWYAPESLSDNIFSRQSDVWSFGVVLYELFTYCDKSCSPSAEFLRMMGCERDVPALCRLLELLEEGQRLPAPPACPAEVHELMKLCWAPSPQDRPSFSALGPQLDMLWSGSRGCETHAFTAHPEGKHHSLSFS
Summary of the method: as §1

[3] = biological target: T3, JAK1 (Homo sapiens, UniProt P23458); experiment: JAK tyrosine kinase inhibitory activity in the presence of 1 mM ATP (ELISA), JAK1; type: biochemical
T3 construct: purchased Carna Biosciences, Inc
Summary of the method: as §1

[4] = system: Aspergillus-induced airway inflammation model; experiment: Inhibitory effect on Aspergillus-induced airway inflammation model; type: in vivo; settings: mice; for Inhibition rate on count of invasive eosinophil in BALF (%): oral, 10 mg/mL suspension at 10 mL/kg twice a day Day 0 to Day 9, BALF collected at Day 10; for inhibition in vivo at 10000 µg/mL, 100 mg/kg: Mus musculus, Eosinophil, po, 240 h, 10 mg/mL suspension at 10 mL/kg twice a day Day 0 to Day 9, BALF collected at Day 10, read-out: Inhibition rate on count of invasive eosinophil in BALF (%)
Method: Aspergillus fumigatus extracts (Greer laboratories, Inc.) were adjusted to 400 μg/mL with PBS. The Aspergillus fumigatus solutions thus prepared were administered to mice as nasal drops (50 μL) on Day 0, Day 1, Day 7 and Day 8. The nasal drop was administered one hour after the administration of test compounds in the morning. The test compound was administered twice a day in the morning and evening of Day 0 to Day 9. The test compound was suspended in 0.5% methylcellulose at 10 mg/mL, and orally administered at the dosage of 10 mL/kg. The bronchoalveolar lavage fluid (BALF) was collected at Day 10, and the total white blood cell count in BALF was measured using Celltac (NIHON KOHDEN). The ratio of eosinophil in total white blood cell was calculated using ADVIA 120 (Siemens Healthcare Diagnostics), and the ratio was multiplied by the total white blood cell count to determine the eosinophil count in BALF. The inhibition rate of the test compound was determined, assuming the inhibitory ratio in the treatment with Aspergillus fumigatus extract and 0.5% methylcellulose as 0% and the inhibitory ratio in the treatment without Aspergillus fumigatus extract but with 0.5% methylcellulose as 100%.

T3 sequence (P23458 whole entry): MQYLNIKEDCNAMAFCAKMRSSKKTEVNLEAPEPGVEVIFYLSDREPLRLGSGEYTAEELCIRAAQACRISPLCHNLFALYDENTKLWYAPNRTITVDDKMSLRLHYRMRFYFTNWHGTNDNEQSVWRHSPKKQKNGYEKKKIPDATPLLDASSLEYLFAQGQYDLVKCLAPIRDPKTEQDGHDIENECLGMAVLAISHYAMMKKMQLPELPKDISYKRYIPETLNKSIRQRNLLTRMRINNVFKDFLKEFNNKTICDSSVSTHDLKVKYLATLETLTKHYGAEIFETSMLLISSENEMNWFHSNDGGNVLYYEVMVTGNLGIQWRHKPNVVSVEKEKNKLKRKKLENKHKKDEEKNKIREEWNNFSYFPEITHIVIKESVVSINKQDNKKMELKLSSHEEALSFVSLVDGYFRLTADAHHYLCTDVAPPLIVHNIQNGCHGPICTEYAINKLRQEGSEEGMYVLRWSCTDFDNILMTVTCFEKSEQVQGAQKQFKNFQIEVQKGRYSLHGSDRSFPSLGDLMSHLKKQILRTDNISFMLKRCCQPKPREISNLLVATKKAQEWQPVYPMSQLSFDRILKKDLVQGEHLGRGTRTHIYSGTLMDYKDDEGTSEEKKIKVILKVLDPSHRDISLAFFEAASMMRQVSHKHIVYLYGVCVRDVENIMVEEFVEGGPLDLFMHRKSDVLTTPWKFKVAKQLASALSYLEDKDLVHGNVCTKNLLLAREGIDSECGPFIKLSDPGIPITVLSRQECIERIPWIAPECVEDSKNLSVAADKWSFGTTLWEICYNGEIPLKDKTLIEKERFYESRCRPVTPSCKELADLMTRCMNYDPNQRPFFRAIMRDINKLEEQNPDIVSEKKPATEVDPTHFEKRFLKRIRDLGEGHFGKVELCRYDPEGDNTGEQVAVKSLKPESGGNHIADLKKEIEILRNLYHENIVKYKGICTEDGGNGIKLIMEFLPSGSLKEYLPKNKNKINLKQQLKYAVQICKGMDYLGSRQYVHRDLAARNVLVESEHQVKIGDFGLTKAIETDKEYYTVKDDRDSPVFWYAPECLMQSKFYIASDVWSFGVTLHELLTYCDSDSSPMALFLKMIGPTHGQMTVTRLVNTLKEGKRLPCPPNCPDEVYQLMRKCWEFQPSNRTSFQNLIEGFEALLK
T1 sequence (O60674 whole entry): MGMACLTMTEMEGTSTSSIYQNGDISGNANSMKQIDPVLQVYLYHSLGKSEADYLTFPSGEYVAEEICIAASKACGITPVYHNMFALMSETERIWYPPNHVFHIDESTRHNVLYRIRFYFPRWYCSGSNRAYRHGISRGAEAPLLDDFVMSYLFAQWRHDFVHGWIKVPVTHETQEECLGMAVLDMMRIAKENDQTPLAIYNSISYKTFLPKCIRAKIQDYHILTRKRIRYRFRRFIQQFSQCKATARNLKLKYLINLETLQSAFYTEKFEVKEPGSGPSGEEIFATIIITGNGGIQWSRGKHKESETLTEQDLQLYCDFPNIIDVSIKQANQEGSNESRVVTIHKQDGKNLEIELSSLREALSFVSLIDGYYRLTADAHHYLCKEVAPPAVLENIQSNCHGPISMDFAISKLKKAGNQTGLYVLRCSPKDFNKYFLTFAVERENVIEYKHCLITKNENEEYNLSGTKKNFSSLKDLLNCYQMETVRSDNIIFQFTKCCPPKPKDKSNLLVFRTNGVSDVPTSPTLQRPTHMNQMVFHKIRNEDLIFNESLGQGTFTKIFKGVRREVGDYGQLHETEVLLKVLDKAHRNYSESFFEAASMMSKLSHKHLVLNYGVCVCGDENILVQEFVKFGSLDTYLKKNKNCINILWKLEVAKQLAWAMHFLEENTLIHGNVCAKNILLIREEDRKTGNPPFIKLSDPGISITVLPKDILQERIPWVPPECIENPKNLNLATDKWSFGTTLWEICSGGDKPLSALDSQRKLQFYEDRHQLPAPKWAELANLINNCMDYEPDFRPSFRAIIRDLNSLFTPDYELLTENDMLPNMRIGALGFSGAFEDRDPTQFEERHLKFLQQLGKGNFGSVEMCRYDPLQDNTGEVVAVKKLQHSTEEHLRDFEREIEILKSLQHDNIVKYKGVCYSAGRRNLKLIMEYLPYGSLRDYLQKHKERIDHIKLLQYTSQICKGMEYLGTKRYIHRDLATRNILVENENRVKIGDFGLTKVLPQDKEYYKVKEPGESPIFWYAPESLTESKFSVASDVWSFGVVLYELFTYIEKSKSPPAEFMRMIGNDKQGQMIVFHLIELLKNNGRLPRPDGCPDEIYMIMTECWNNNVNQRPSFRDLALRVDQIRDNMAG

Question: For COC(=O)NC1CCN(C(=O)c2cc(N[C@@H](C)C3CC3)nc(-c3cnn4ccsc34)n2)CC1.Cl [Example 27, Methyl (1-{[6-{[(1S)-1-cyclopropylethyl]amino}-2-(pyrazolo[5,1-b][1,3]thiazol-7-yl)pyrimidin-4-yl]carbonyl}piperidin-4-yl)carbamate hydrochloride], which IC50 [1] is on record?
Answer: 2500 nM

Question: What about the IC50 [2] of the same compound?
Answer: 4300 nM

Question: What about the IC50 [3] of the same compound?
Answer: 140 nM

Question: And the “Inhibition rate on count of invasive eosinophil in BALF (%)” value [4]?
Answer: 62%

Question: With C[C@H](Nc1cc(C(=O)N2CCC(NC(=O)OC(C)(C)CF)CC2)nc(-c2cnn3ccsc23)n1)C1CC1 [Example 21, 1-Fluoro-2-methylpropan-2-yl (1-{[6-{[(1S)-1-cyclopropylethyl]amino}-2-(pyrazolo[5,1-b][1,3]thiazol-7-yl)pyrimidin-4-yl]carbonyl}piperidin-4-yl)carbamate hydrochloride] as the compound, how does the IC50 [1] read?
Answer: 2200 nM

Question: And the IC50 [2]?
Answer: > 10000 nM

Question: And the IC50 [3]?
Answer: 230 nM

Question: And the inhibition in vivo at 10000 µg/mL, 100 mg/kg [4]?
Answer: 47%

Question: What does the source list for CC[C@@H](C)Nc1cc(C(=O)N2CCC(NC(=O)OC)CC2)nc(-c2cnn3ccsc23)n1.Cl [Example 127, Methyl [1-({6-[(2R)-butan-2-ylamino]-2-(pyrazolo[5,1-b][1,3]thiazol-7-yl)pyrimidin-4-yl}carbonyl)piperidin-4-yl]carbamate hydrochloride]?
Answer: IC50 [3]: 590 nM; Inhibition rate on count of invasive eosinophil in BALF (%) [4]: 38%

Question: With C[C@H](Nc1cc(C(=O)N2CCC(O)CC2)nc(-c2cnn3ccsc23)n1)C(C)(C)C [Example 23, [6-{[(2S)-3,3-Dimethylbutan-2-yl]amino}-2-(pyrazolo[5,1-b][1,3]thiazol-7-yl)pyrimidin-4-yl](4-hydroxypiperidin-1-yl)methanone] as the compound, how does the IC50 [1] read?
Answer: 870 nM

Question: What about the IC50 [2] of the same compound?
Answer: 3300 nM

Question: And the IC50 [3]?
Answer: 860 nM

Question: And the inhibition in vivo at 10000 µg/mL, 100 mg/kg [4]?
Answer: 31%

Question: What does the source list for CC[C@@H](C)Nc1cc(C(=O)N2CCC(NC(=O)OC)CC2)nc(-c2cnn3ccsc23)n1 [Example 126, Methyl [1-({6-[(2R)-butan-2-ylamino]-2-(pyrazolo[5,1-b][1,3]thiazol-7-yl)pyrimidin-4-yl}carbonyl)piperidin-4-yl]carbamate]?
Answer: IC50 [1]: > 10000 nM; IC50 [2]: > 10000 nM; IC50 [3]: 820 nM; inhibition in vivo at 10000 µg/mL, 100 mg/kg [4]: 57%

Question: For COC(=O)NC1CCN(C(=O)c2cc(N[C@@H](C)C3CC3)nc(-c3cnn4ccsc34)n2)CC1 [Example 26, Methyl (1-{[6-{[(1S)-1-cycloproropylethyl]amino}-2-(pyrazolo[5,1-b][1,3]thiazol-7-yl)pyrimidin-4-yl]carbonyl}piperidin-4-yl)carbamate], which IC50 [1] is on record?
Answer: 2100 nM

Question: What about the IC50 [2] of the same compound?
Answer: 2100 nM

Question: What about the IC50 [3] of the same compound?
Answer: 75 nM

Question: What about the inhibition in vivo at 10000 µg/mL, 100 mg/kg [4] of the same compound?
Answer: 58%

Question: C[C@H](Nc1cc(C(=O)N2CCC(NC(=O)C3CC3)CC2)nc(-c2cnn3ccsc23)n1)C1CC1 [Example 1, N-(1-{[6-{[(1S)-1-Cyclopropylethyl]amino}-2-(pyrazolo[5,1-b][1,3]thiazol-7-yl)pyrimidin-4-yl]carbonyl}piperidin-4-yl)cyclopropanecarboxamide hydrochloride] was tested. Which IC50 [1] did it give?
Answer: 3400 nM

Question: And the IC50 [2]?
Answer: 3400 nM

Question: And the IC50 [3]?
Answer: 52 nM

Question: What about the inhibition in vivo at 10000 µg/mL, 100 mg/kg [4] of the same compound?
Answer: 43%

Question: Which results are given for CC[C@H](C)Nc1cc(C(=O)N2CCC(NC(=O)OC)CC2)nc(-c2cnn3ccsc23)n1 [Example 125, Methyl [1-({6-[(2S)-butan-2-ylamino]-2-(pyrazolo[5,1-b][1,3]thiazol-7-yl)pyrimidin-4-yl}carbonyl)piperidin-4-yl]carbamate hydrochloride]?
Answer: IC50 [1]: 4700 nM; IC50 [2]: > 10000 nM; IC50 [3]: 210 nM; inhibition in vivo at 10000 µg/mL, 100 mg/kg [4]: 35%

Question: For COCCOC(=O)NC1CCN(C(=O)c2cc(N[C@H](C)C(C)(C)C)nc(-c3cnn4ccsc34)n2)CC1 [Example 90, 2-Methoxyethyl (1-{[6-{[(2R)-3,3-dimethylbutan-2-yl]amino}-2-(pyrazolo[5,1-b][1,3]thiazol-7-yl)pyrimidin-4-yl]carbonyl}piperidin-4-yl)carbamate], which IC50 [1] is on record?
Answer: 1200 nM

Question: What about the IC50 [2] of the same compound?
Answer: 1800 nM

Question: And the IC50 [3]?
Answer: 620 nM

Question: COC(=O)NC1CCN(C(=O)c2cc(NC3CCCC3)nc(-c3cnn4ccsc34)n2)CC1 [Example 179, Methyl 1-[6-(cyclopentylamino)-2-(pyrazolo[5,1-b][1,3]thiazol-7-yl)pyrimidine-4-carbonyl]piperidin-4-ylcarbamate] was tested. Which IC50 [1] did it give?
Answer: > 10000 nM

Question: What about the IC50 [2] of the same compound?
Answer: > 10000 nM

Question: What about the IC50 [3] of the same compound?
Answer: 320 nM

Question: With COC(=O)NC1CCN(C(=O)c2cc(N[C@H](C)C3CCCCC3)nc(-c3cnn4ccsc34)n2)CC1 [Example 161, Methyl 1-[6-[(1R)-1-cyclohexylethyl]amino-2-(pyrazolo[5,1-b][1,3]thiazol-7-yl)pyrimidine-4-carbonyl]piperidin-4-ylcarbamate] as the compound, how does the IC50 [1] read?
Answer: > 10000 nM

Question: And the IC50 [2]?
Answer: > 10000 nM

Question: What about the IC50 [3] of the same compound?
Answer: 47 nM

Question: Which results are given for CCC(=O)NC1CCN(C(=O)c2cc(NCC(C)(C)OC)nc(-c3cnn4ccsc34)n2)CC1 [Example 119, N-[1-({6-[(2-Methoxy-2-methylpropyl)amino]-2-(pyrazolo[5,1-b][1,3]thiazol-7-yl)pyrimidin-4-yl}carbonyl)piperidin-4-yl]propanamide]?
Answer: IC50 [1]: 4200 nM; IC50 [2]: > 10000 nM; IC50 [3]: 670 nM

Question: For C[C@H](Nc1cc(C(=O)N2CCC(NC(=O)NC3CC3)CC2)nc(-c2cnn3ccsc23)n1)C1CC1 [Example 34, 1-Cyclopropyl-3-(1-{[6-{[(1S)-1-cyclopropylethyl]amino}-2-(pyrazolo[5,1-b][1,3]thiazol-7-yl)pyrimidin-4-yl]carbonyl}piperidin-4-yl)urea], which IC50 [1] is on record?
Answer: 1900 nM

Question: What about the IC50 [2] of the same compound?
Answer: 3000 nM

Question: What about the IC50 [3] of the same compound?
Answer: 350 nM

Question: For CC(C)(C)CNc1cc(C(=O)N2CCC(O)CC2)nc(-c2cnn3ccsc23)n1 [Example 94, {6-[(2,2-Dimethylpropyl)amino]-2-(pyrazolo[5,1-b][1,3]thiazol-7-yl)pyrimidin-4-yl}(4-hydroxypiperidin-1-yl)methanone], which IC50 [1] is on record?
Answer: 2200 nM

Question: And the IC50 [2]?
Answer: 5400 nM

Question: And the IC50 [3]?
Answer: 1900 nM

Question: What does the source list for CC(C)[C@H](C)Nc1cc(C(=O)N2CCC(NC(=O)C3CC3)CC2)nc(-c2cnn3ccsc23)n1 [Example 123, N-(1-{[6-{[(2S)-3-Methylbutan-2-yl]amino}-2-(pyrazolo[5,1-b][1,3]thiazol-7-yl)pyrimidin-4-yl]carbonyl}piperidin-4-yl)cyclopropanecarboxamide]?
Answer: IC50 [1]: 1400 nM; IC50 [2]: 1600 nM; IC50 [3]: 260 nM

Question: For COC(=O)N1CCC(Nc2cc(C(=O)N3CCC(NC(=O)C4CC4)CC3)nc(-c3cnn4ccsc34)n2)CC1 [Example 194, Methyl 4-[6-4-[(cyclopropanecarbonyl)amino]piperidine-1-carbonyl-2-(pyrazolo[5,1-b][1,3]thiazol-7-yl)pyrimidin-4-yl]aminopiperidine-1-carboxylate], which IC50 [1] is on record?
Answer: > 10000 nM

Question: What about the IC50 [2] of the same compound?
Answer: > 10000 nM

Question: What about the IC50 [3] of the same compound?
Answer: 260 nM

Question: Which results are given for Cc1c(N[C@@H](C)C2CC2)nc(-c2cnn3ccsc23)nc1C(=O)N1CCC(NC(=O)C2CC2)CC1 [Example 12, N-(1-{[6-{[(1S)-1-Cyclopropylethyl]amino}-5-methyl-2-(pyrazolo[5,1-b][1,3]thiazol-7-yl)pyrimidin-4-yl]carbonyl}piperidin-4-yl)cyclopropanecarboxamide]?
Answer: IC50 [1]: 2200 nM; IC50 [2]: 1800 nM; IC50 [3]: 120 nM

From US9999622B2, “Pyrazolothiazole compound and medicine comprising same” (NIPPON SHINYAKU CO., LTD., priority 2014, dated 2018)
